# Assay results reported in PubChem BioAssay (NCI).
#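 96-well plates; 48 h exposure; 5 concentrations. Endpoints by linear interpolation between flanking doses. Not reached: highest tested concentration assigned. GI50: concentration for 50% inhibition of growth. At the TGI there is no net growth.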
# How the values were obtained:
# Assay in all cases: NCI-60 cell line screen, 48 h
# ACHN renal = system: ACHN renal
# CCRF-CEM leukemia = system: CCRF-CEM leukemia
# COLO 205 colon = system: COLO 205 colon
# HS 578T breast = system: HS 578T breast
# NCI/ADR-RES ovarian = system: NCI/ADR-RES ovarian
# OVCAR-5 ovarian = system: OVCAR-5 ovarian
# RPMI-8226 leukemia = system: RPMI-8226 leukemia
# SF-268 CNS = system: SF-268 CNS
# SK-MEL-5 melanoma = system: SK-MEL-5 melanoma
# TK-10 renal = system: TK-10 renal
SMILES,TGI (ACHN renal),TGI (CCRF-CEM leukemia),TGI (COLO 205 colon),TGI (HS 578T breast),TGI (NCI/ADR-RES ovarian),TGI (OVCAR-5 ovarian),TGI (RPMI-8226 leukemia),TGI (SF-268 CNS),TGI (SK-MEL-5 melanoma),TGI (TK-10 renal),GI50 (ACHN renal),GI50 (CCRF-CEM leukemia),GI50 (COLO 205 colon),GI50 (HS 578T breast),GI50 (NCI/ADR-RES ovarian),GI50 (OVCAR-5 ovarian),GI50 (RPMI-8226 leukemia),GI50 (SF-268 CNS),GI50 (SK-MEL-5 melanoma),GI50 (TK-10 renal)
CCOC(=O)C(CO)c1nc2c([nH]c1=O)c(=O)n(C)c(=O)n2C (centres undefined),> 100 µM,> 100 µM,> 100 µM,> 100 µM,> 100 µM,> 100 µM,> 100 µM,> 100 µM,> 100 µM,> 100 µM,–,–,–,–,–,–,–,–,–,–
CN(C)CCCN1c2nc3ccccc3cc2Sc2cc3ccccc3nc21,2.94 µM,2.55 µM,2.82 µM,2.91 µM,5.39 µM,2.97 µM,2.08 µM,3 µM,3.04 µM,3.1 µM,1.55 µM,1.12 µM,1.24 µM,1.37 µM,1.88 µM,1.54 µM,0.45 µM,1.59 µM,1.59 µM,1.65 µM
CN(C)N1C(=O)c2ccccc2NC1c1ccccc1 (centres undefined),> 100 µM,> 100 µM,> 100 µM,> 100 µM,> 100 µM,> 100 µM,> 100 µM,> 100 µM,> 100 µM,> 100 µM,–,–,–,–,–,–,–,–,–,–
N=C(N=C(N)N)N1CCN(c2ccncc2)CC1,> 1000 µM,> 1000 µM,> 1000 µM,> 1000 µM,> 1000 µM,> 1000 µM,> 1000 µM,> 1000 µM,> 1000 µM,> 1000 µM,> 1000 µM,> 1000 µM,> 1000 µM,913 µM,> 1000 µM,> 1000 µM,> 1000 µM,> 1000 µM,> 1000 µM,> 1000 µM
COc1ccc2c(Nc3ccc(NS(C)(=O)=O)cc3)c3ccccc3nc2c1,1.58 µM,6.03 µM,1.58 µM,2.64 µM,28.6 µM,4.91 µM,4.09 µM,4.03 µM,1.89 µM,4.96 µM,0.217 µM,0.32 µM,0.384 µM,0.292 µM,3.63 µM,1.02 µM,0.431 µM,0.469 µM,0.526 µM,0.596 µM
O=C1C=C(Br)C(=O)C12CCc1ccccc12 (centres undefined),24.7 µM,> 27.5 µM,11.2 µM,> 82.5 µM,81.3 µM,33.3 µM,> 37.5 µM,58.7 µM,34.6 µM,32.3 µM,–,–,–,–,–,–,–,–,–,–
COc1cc(/C=C\[N+](=O)[O-])ccc1OCc1ccccc1,4.36 µM,11.5 µM,3.37 µM,> 100 µM,24.9 µM,13.7 µM,2.73 µM,11.5 µM,3.05 µM,5.27 µM,1.99 µM,3.13 µM,1.67 µM,3.81 µM,3.5 µM,3.29 µM,0.43 µM,2.83 µM,1.4 µM,1.93 µM
CCOC(=O)C(=Cc1ccccc1[N+](=O)[O-])C(=O)OCC,4.31 µM,20.6 µM,3.85 µM,11.6 µM,7.8 µM,15.7 µM,18.3 µM,11.5 µM,2.66 µM,15.7 µM,2.06 µM,3.13 µM,2.14 µM,2.71 µM,2.59 µM,5.75 µM,3.69 µM,3.35 µM,1.33 µM,5.39 µM
C=C1C(=O)OC2CC1C(O)C/C(C)=C/CC/C(C)=C/C(O)CC2C (centres undefined),3.75 µM,1.34 µM,2.94 µM,11 µM,4.8 µM,24.7 µM,6.23 µM,8.66 µM,15.4 µM,6.91 µM,–,–,–,–,–,–,–,–,–,–
COc1cc2c3c(n(CCCNCCN)c(=O)c2cc1OC)-c1cc2c(cc1C3=O)OCO2,1.01 µM,0.339 µM,> 100 µM,4.76 µM,> 62.4 µM,10.5 µM,3.02 µM,> 31.9 µM,6.77 µM,18.9 µM,0.304 µM,< 0.0105 µM,> 100 µM,0.419 µM,18.9 µM,1.39 µM,0.475 µM,0.776 µM,0.978 µM,2.9 µM
CC[C@@]1(O)C(=O)NCc2c1cc1n(c2=O)Cc2cc3c(N)cccc3nc2-1,> 46.6 µM,> 19.5 µM,> 48.1 µM,> 64.3 µM,38.5 µM,> 94.5 µM,> 32.1 µM,–,17.3 µM,> 52.8 µM,1.23 µM,0.185 µM,8.35 µM,> 17.4 µM,2.29 µM,11.8 µM,4.23 µM,0.558 µM,1.23 µM,20.1 µM
O=S(=O)(NCC1CCC(CNc2ccc(Cl)cc2)CC1)c1ccc(-c2ccccc2)cc1 (centres undefined),> 50 µM,> 50 µM,> 50 µM,> 50 µM,> 50 µM,> 50 µM,> 50 µM,> 50 µM,> 50 µM,> 50 µM,18.3 µM,> 50 µM,> 50 µM,12.7 µM,> 50 µM,29.3 µM,12.5 µM,> 50 µM,15.9 µM,22.8 µM
